The results in this text go back to patent US20260097037A1, “FUSED RING COMPOUND HAVING GLP-1 RECEPTOR AGONIST EFFECT” (Shionogi & Co., Ltd., priority 2022, published 2026).

The assay concerns the target T1, Human GLP-1 receptor stably expressing cells (hGLP-1R/CHO-K1 cells) (Homo sapiens, UniProt P43220).
T1 construct: expressed in transfected cells
Nature of the assay: Measurement of GLP-1 receptor agonist activity (cAMP assay). Format: cell-based. The settings on record: for Emax: CHO-K1, maximum effect, cAMP with 2 nM human GLP-1 (7-36) = 100%, DMSO only = 0%, read-out: Emax; for EC50: increase in cAMP concentration in hGLP-1R/CHO-K1 cells, 37° C. 1 hour. The method, boiled down:
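hGLP-1R/CHO-K1 cells (cryopreserved) incubated with compound and forskolin in HBSS with 0.1% BSA, IBMX and RO20-1724, 1 h at 37° C; cAMP read by HTRF. EC50 and Emax from cAMP rise, normalised to 2 nM human GLP-1 (7-36) (100%) and DMSO (0%).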

T1 sequence (P43220 24-463): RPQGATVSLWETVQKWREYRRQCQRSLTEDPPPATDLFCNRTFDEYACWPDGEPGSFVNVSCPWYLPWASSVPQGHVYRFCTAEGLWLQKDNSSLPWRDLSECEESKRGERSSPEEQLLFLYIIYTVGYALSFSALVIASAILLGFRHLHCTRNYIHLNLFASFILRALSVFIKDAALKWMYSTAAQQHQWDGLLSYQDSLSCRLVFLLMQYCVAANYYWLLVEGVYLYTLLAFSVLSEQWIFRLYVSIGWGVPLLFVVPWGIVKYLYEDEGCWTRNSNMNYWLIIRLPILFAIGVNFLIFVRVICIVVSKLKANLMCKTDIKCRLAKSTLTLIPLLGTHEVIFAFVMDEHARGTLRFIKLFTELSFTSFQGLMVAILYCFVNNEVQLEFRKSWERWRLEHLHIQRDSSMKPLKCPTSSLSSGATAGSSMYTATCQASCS

Consider `C[C@H]1c2nc(NCc3ccc(Cl)cn3)c(C(F)(F)F)cc2CCN1Cc1nc2c(Cl)cc(C(=O)O)cc2n1C[C@@H]1CCO1` [Compound I-197], for which the Emax came out at 111% and the EC50 is 0.345 nM.
Taken in the same sequence, the figures for `C[C@H]1c2nc(OCc3ccc(F)cc3F)c(Cl)cc2CCN1Cc1nc2ccc(C(=O)O)nc2n1C[C@@H]1CCO1` [Compound I-029] were 105% and 0.592 nM.
Taken in the same sequence, the figures for `C[C@H]1c2nc(OCc3ccc(Cl)cc3Cl)c(Cl)cc2CCN1Cc1nc2ccc(C(=O)O)cc2n1C[C@@H]1CCO1` [Compound I-020] were 135% and 0.0972 nM.
Taken in the same sequence, the figures for `C[C@H]1c2nc(OCc3ccc(F)cc3)c(Cl)cc2CCN1Cc1nc2c(F)cc(C(=O)O)cc2n1C[C@@H]1CCO1` [Compound I-087] were 103% and 0.248 nM.
Regarding `C[C@H]1c2c(cc(C(F)(F)F)c3c2O[C@@](C)(c2ccc(Cl)cc2F)O3)CCN1Cc1nc2c(F)cc(C(=O)O)cc2n1C[C@@H]1CCO1` [Compound I-164], the Emax worked out at 108% and the response was half-maximal at 1.63 nM (EC50).
Taken in the same sequence, the figures for `C[C@H]1c2nc(OCc3cc(F)c(Cl)cc3F)c(C(F)F)cc2CCN1Cc1nc2ccc(C(=O)O)nc2n1C[C@@H]1CCO1` [Compound I-102] were 117% and 0.469 nM.
Taken in the same sequence, the figures for `C[C@H]1c2nc(NCc3ncc(Cl)cc3F)c(C(F)(F)F)cc2CCN1Cc1nc2c(F)cc(C(=O)O)cc2n1C[C@@H]1CCO1` [Compound I-191] were 114% and 0.266 nM.
Taken in the same sequence, the figures for `COc1cc(Cl)ccc1COc1nc2c(cc1C#N)CCN(Cc1nc3c(Cl)cc(C(=O)O)cc3n1C[C@@H]1CCO1)[C@H]2C` [Compound I-187] were 137% and 0.04 nM.
As to `COc1cc(C(=O)O)cc2c1nc(CN1CCc3cc(Cl)c(OCc4c(F)cc(Cl)cc4F)cc3[C@@H]1C)n2C[C@@H]1CCO1` [Compound I-074], the Emax turned out to be 104% and a half-maximal effect (EC50) was put at 0.0232 nM.
`C[C@H]1c2nc(OCc3ccc(OC(F)F)cc3F)c(C(F)F)cc2CCN1Cc1nc2ccc(C(=O)O)cc2n1C[C@@H]1CCO1` [Compound I-059]: the Emax was found to be 104% and the EC50 was found to be 1.28 nM.
Taken in the same sequence, the figures for `C[C@H]1c2nc(OCc3ccc(C#N)cc3F)c(C(F)F)cc2CCN1Cc1nc2c(F)cc(C(=O)O)cc2n1C[C@@H]1CCO1` [Compound I-115] were 113% and 0.043 nM.
As to `C[C@H]1c2c(cc(C(F)(F)F)c3c2O[C@@](C)(c2ccc(Cl)cn2)O3)CCN1Cc1nc2ccc(C(=O)O)cc2n1C[C@@H]1CCO1` [Compound I-027], the Emax is 119% and the response was half-maximal at 0.701 nM (EC50).
Taken in the same sequence, the figures for `C[C@H]1c2nc(OCc3ccc(Cl)cc3Cl)c(C(F)F)cc2CCN1Cc1nc2ccc(C(=O)O)nc2n1C[C@@H]1CCO1` [Compound I-100] were 115% and 0.58 nM.
Turning to `COc1cc(C(=O)O)cc2c1nc(CN1CCc3cc(C(F)(F)F)c4c(c3[C@@H]1C)O[C@@](C)(c1ccc(Cl)cn1)O4)n2C[C@@H]1CCO1` [Compound I-159], the maximal response (Emax) is 99.3% and the concentration giving a half-maximal response (EC50) was 0.155 nM.
Taken in the same sequence, the figures for `COc1cc(C(=O)O)cc2c1nc(CN1CCc3cc(Cl)c(OCc4ccc(OC(F)F)cc4F)nc3[C@@H]1C)n2C[C@@H]1CCO1` [Compound I-071] were 110% and 0.0683 nM.
Taken in the same sequence, the figures for `C[C@H]1c2nc(OCc3ccc(Cl)cc3F)c(C(F)(F)F)cc2CCN1Cc1nc2c(-c3cnn(C)c3)cc(C(=O)O)cc2n1C[C@@H]1CCO1` [Compound I-178] were 99.7% and 12.4 nM.
Taken in the same sequence, the figures for `C[C@H]1c2nc(OCc3ccc(F)cc3Cl)c(C#N)cc2CCN1Cc1nc2c(Cl)cc(C(=O)O)cc2n1C[C@@H]1CCO1` [Compound I-182] were 119% and 0.173 nM.
Turning to `C[C@H]1c2nc(OCc3cc(F)c(Cl)cc3F)c(C#N)cc2CCN1Cc1nc2c(Cl)cc(C(=O)O)cc2n1C[C@@H]1CCO1` [Compound I-188], the Emax worked out at 120% and it took 0.119 nM to reach a half-maximal effect (EC50).
As for `C[C@H]1c2nc(OCc3ccc(F)cc3F)c(C(F)F)cc2CCN1Cc1nc2ccc(C(=O)O)cc2n1C[C@@H]1CCO1` [Compound I-056], the Emax was determined as 108% and the EC50 was determined as 0.354 nM.
Taken in the same sequence, the figures for `C[C@H]1c2nc(OCc3ccc(Cl)cc3)c(C(F)F)cc2CCN1Cc1nc2c(F)cc(C(=O)O)cc2n1C[C@@H]1CCO1` [Compound I-109] were 112% and 0.101 nM.
As for `C[C@H]1c2nc(OCc3ccc(Cl)cn3)c(C(F)F)cc2CCN1Cc1nc2ccc(C(=O)O)c(F)c2n1C[C@@H]1CCO1` [Compound I-123], the Emax was 127% and the midpoint of the response, the EC50, lay at 0.275 nM.
Taken in the same sequence, the figures for `COc1cc(C(=O)O)cc2c1nc(CN1CCc3cc(Cl)c(OCc4ccc(Cl)cn4)nc3[C@@H]1C)n2C[C@@H]1CCO1` [Compound I-065] were 104% and 0.0809 nM.
In the case of `C[C@H]1c2c(cc(C(F)(F)F)c3c2O[C@@](C)(c2ccc(Cl)cn2)O3)CCN1Cc1nc2c(F)cc(C(=O)O)cc2n1C[C@@H]1CCO1` [Compound I-156], the Emax was determined as 101% and the EC50 was determined as 0.671 nM.
Taken in the same sequence, the figures for `Cc1ccc(COc2nc3c(cc2C(F)F)CCN(Cc2nc4ccc(C(=O)O)nc4n2C[C@@H]2CCO2)[C@H]3C)cc1` [Compound I-098] were 118% and 1.16 nM.
For the compound `C[C@H]1c2c(ccc3c2OC(C)(c2ccc(Cl)cc2F)O3)CCN1Cc1nc2ccc(C(=O)O)cc2n1C[C@@H]1CCO1` (stereo partly shown) [Compound I-091], the Emax worked out at 91.7% and the EC50 is 2.64 nM.
Taken in the same sequence, the figures for `C[C@H]1c2nc(NCc3cc(F)c(Cl)cc3F)c(C(F)(F)F)cc2CCN1Cc1nc2c(F)cc(C(=O)O)cc2n1C[C@@H]1CCO1` [Compound I-175] were 107% and 0.0831 nM.
For the compound `C[C@H]1c2nc(OCc3ccc(F)cc3)c(C(F)F)cc2CCN1Cc1nc2ccc(C(=O)O)c(F)c2n1C[C@@H]1CCO1` [Compound I-117], the Emax was 118% and the EC50 turned out to be 0.372 nM.
On to `C[C@H]1c2nc(OCc3ccc(Cl)cc3)c(Cl)cc2CCN1Cc1nc2c(F)cc(C(=O)O)cc2n1C[C@@H]1CCO1` [Compound I-082], for which the Emax is 100% and the EC50 was found to be 0.0849 nM.
Take `C[C@H]1c2nc(OCc3c(F)cc(F)cc3F)c(C#N)cc2CCN1Cc1nc2c(Cl)cc(C(=O)O)cc2n1C[C@@H]1CCO1` [Compound I-183]: the Emax worked out at 135% and the EC50 is 0.151 nM.
Taken in the same sequence, the figures for `C[C@H]1c2cc(OCc3ccc(F)cc3F)c(C(F)F)cc2CCN1Cc1nc2ccc(C(=O)O)cc2n1C[C@@H]1CCO1` [Compound I-008] were 107% and 3.89 nM.
With `C[C@H]1c2nc(OCc3cc(F)c(Cl)cc3F)c(Cl)cc2CCN1Cc1nc2ccc(C(=O)O)c(F)c2n1C[C@@H]1CCO1` [Compound I-040], the Emax turned out to be 129% and the midpoint of the response, the EC50, lay at 0.0679 nM.
`COc1cc(C(=O)O)cc2c1nc(CN1CCc3cc(C(F)F)c(OCc4ccc(F)cc4F)nc3[C@@H]1C)n2C[C@@H]1CCO1` [Compound I-131]: the Emax worked out at 123% and the EC50 worked out at 0.0299 nM.
Taken in the same sequence, the figures for `C[C@H]1c2nc(OCc3ccc(Cl)cc3)c(Cl)cc2CCN1Cc1nc2ccc(C(=O)O)cc2n1C[C@@H]1CCO1` [Compound I-017] were 136% and 0.17 nM.
`C[C@H]1c2nc(OCc3cc(Cl)n(C)n3)c(C(F)(F)F)cc2CCN1Cc1nc2ccc(C(=O)O)cc2n1C[C@@H]1CCO1` [Compound I-154]: the Emax stood at 101% and the EC50 is 7.04 nM.
Taken in the same sequence, the figures for `C[C@H]1c2nc(OCc3ccc(Cl)cc3)c(C#N)cc2CCN1Cc1nc2c(Cl)cc(C(=O)O)cc2n1C[C@@H]1CCO1` [Compound I-189] were 124% and 0.222 nM.
Regarding `COc1cc(C(=O)O)cc2c1nc(CN1CCc3cc(C(F)F)c(OCc4ccc(Cl)cc4)nc3[C@@H]1C)n2C[C@@H]1CCO1` [Compound I-129], the Emax is 131% and the EC50 stood at 0.0303 nM.
On to `C[C@H]1c2nc(OCc3ncc(Cl)cc3F)c(C(F)(F)F)cc2CCN1Cc1nc2ccc(C(=O)O)cc2n1C[C@@H]1CCO1` [Compound I-105], for which the Emax stood at 110% and the response was half-maximal at 0.314 nM (EC50).
Taken in the same sequence, the figures for `C[C@H]1c2nc(OCc3ccc(Cl)c4ccoc34)c(C#N)cc2CCN1Cc1nc2c(Cl)cc(C(=O)O)cc2n1C[C@@H]1CCO1` [Compound I-180] were 111% and 0.28 nM.
Taken in the same sequence, the figures for `C[C@H]1c2nc(OCc3c(F)cc(C#N)cc3F)c(C(F)(F)F)cc2CCN1Cc1nc2ccc(C(=O)O)cc2n1C[C@@H]1CCO1` [Compound I-107] were 111% and 0.106 nM.
Taken in the same sequence, the figures for `C[C@H]1c2nc(OCc3ccc(Cl)cc3F)c(C(F)(F)F)nc2CCN1Cc1nc2ccc(C(=O)O)cc2n1C[C@@H]1CCO1` [Compound I-174] were 96.3% and 0.174 nM.
Take `O=C(O)c1ccc2nc(C3CC34CCc3cc(C(F)(F)F)c(OCc5ccc(Cl)cc5F)cc3C4)n(C[C@@H]3CCO3)c2c1` (stereo partly shown) [Compound I-104]: the Emax came to 75.3% and the EC50 was 514 nM.
As to `Cc1ccc(COc2nc3c(cc2C(F)F)CCN(Cc2nc4ccc(C(=O)O)cc4n2C[C@@H]2CCO2)[C@H]3C)cc1` [Compound I-053], the Emax amounted to 123% and the midpoint of the response, the EC50, lay at 0.417 nM.
Taken in the same sequence, the figures for `COc1cc(Cl)ccc1COc1nc2c(cc1C(F)F)CCN(Cc1nc3ccc(C(=O)O)cc3n1C[C@@H]1CCO1)[C@H]2C` [Compound I-054] were 121% and 0.0963 nM.
On to `C[C@H]1c2nc(OCc3ccc(Cl)cc3F)c(C(F)(F)F)cc2CCN1Cc1nc2c(-c3ccn(C)n3)cc(C(=O)O)cc2n1C[C@@H]1CCO1` [Compound I-064], for which the maximal response (Emax) is 102% and the EC50 was found to be 0.345 nM.
